Data from patent US20230331803A1, “CO-AGONISTS OF THE GLP-1 AND AMYLIN RECEPTORS” (priority 2020, published 2023).
“Also recorded” adds a separate entry of the source. Like-named read-outs stand apart in the source and are kept apart here. Starred links: 1 amine or outer side, 2 acyl side, 3 side chain; linkers in the order of their positions; H or OH if unused. Non-standard residues stand in square brackets, D forms with d. Groups on a side chain read outwards from the residue. *: point of attachment. Butyryl(4-SO2NHCO(CH2)16Tz) = O=C(CCCCCCCCCCCCCCCCc1nnn[nH]1)NS(=O)(=O)CCCC(=O)*; Decanoyl(10-(4-HOOC-PhO)) = O=C(O)c1ccc(OCCCCCCCCCC(=O)*)cc1; C20 diacid = O=C(O)CCCCCCCCCCCCCCCCCCC(=O)*; C18 diacid = O=C(O)CCCCCCCCCCCCCCCCC(=O)*; C16 diacid = O=C(O)CCCCCCCCCCCCCCC(=O)*; γGlu = O=C(O)[C@H](CCC(=O)[*:2])N[*:1]; εLys = N[C@@H](CCCCN[*:1])C(=O)[*:2]; Trx = NC[C@H]1CC[C@H](C(=O)O)CC1; AEEA = NCCOCCOCC(=O)O; Aib = CC(C)(N)C(=O)O

Key:
[1] = target: T1, human GLP-1 receptor (Homo sapiens, UniProt P43220); experiment: Human GLP-1 receptor in vitro potency assay (CRE-luciferase reporter, BHK cells); format: cell-based
T1 construct: expressed in transfected cells; host or cells: BHK (Baby Hamster Kidney) cells, clone BHK 467-12A KZ-10, stably transfected, with CRE-luciferase reporter
T1 sequence (P43220 24-463): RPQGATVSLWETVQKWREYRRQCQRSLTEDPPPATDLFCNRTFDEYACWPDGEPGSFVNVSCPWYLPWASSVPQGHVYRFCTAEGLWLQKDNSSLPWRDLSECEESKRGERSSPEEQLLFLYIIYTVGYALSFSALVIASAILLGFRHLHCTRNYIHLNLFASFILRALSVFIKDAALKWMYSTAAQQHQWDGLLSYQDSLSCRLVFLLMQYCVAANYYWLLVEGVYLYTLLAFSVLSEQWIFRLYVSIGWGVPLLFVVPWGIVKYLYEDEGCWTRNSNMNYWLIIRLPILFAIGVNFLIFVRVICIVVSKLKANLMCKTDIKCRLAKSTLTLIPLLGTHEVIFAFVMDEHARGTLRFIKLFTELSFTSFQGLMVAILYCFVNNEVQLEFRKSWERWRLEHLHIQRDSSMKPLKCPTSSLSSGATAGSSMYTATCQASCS
Method: It is thus possible to measure GLP-1 receptor activity using a CRE-luciferase reporter gene introduced into Baby Hamster Kidney (BHK) cells co-expressing the GLP-1 receptor.
Cells were aliquoted and stored at -180° C. until use.
Plates were sealed and incubated at room temperature with gentle shaking for 30 minutes while protected from light. Luminescence was detected on a luminescence plate reader e.g. a Synergy 2 (BioTek).

[2] = target: T2, human amylin receptor (hAmyR3) (Homo sapiens, UniProt O60896+P30988); experiment: Human amylin receptor in vitro potency assay (CRE-luciferase reporter, BHK cells); format: cell-based;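 note: BHK cells expressing human calcitonin receptor plus RAMP3 (amylin-3 receptor) with a CRE-luciferase reporter, agonist activity read as luminescence from cAMP-driven transcription, 7-point serial dilutions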
T2 construct: host or cells: BHK cells (Hollex-1 line: human calcitonin receptor (a) + CRE-Luc), further transfected with human RAMP3
T2 sequence (P30988 25-474): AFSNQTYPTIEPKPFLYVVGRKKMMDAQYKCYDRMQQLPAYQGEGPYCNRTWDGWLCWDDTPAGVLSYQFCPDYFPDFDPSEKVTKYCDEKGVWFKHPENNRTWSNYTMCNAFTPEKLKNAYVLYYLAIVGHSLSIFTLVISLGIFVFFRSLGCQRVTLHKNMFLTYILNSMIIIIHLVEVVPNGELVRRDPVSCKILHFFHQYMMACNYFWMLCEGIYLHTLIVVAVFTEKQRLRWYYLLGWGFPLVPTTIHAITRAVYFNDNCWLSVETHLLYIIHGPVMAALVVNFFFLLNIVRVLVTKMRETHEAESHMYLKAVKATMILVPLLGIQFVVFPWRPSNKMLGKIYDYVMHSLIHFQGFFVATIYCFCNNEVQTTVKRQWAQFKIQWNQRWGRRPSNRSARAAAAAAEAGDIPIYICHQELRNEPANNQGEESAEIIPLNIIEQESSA
T2 sequence (O60896 24-148): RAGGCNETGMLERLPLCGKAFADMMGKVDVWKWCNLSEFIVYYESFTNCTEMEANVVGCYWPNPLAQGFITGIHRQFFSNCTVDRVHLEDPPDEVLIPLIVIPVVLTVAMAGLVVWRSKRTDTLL

[3] = system: Sprague Dawley (SD) rats; experiment: Acute food intake in ad libitum fed rats after a single subcutaneous administration; format: in vivo, rat; details: for Food intake relative to vehicle (%) 0-24 hr, 10 nmol/kg / Food intake relative to vehicle (%) 24-48 hr, 10 nmol/kg: rat, single administration;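 for all read-outs here: food intake monitored in the HM2 system, three rats per cage kept on a reversed light cycle, with food and water freely available after the subcutaneous dose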
Text: Sprague Dawley (SD) rats from Taconic Europe, Denmark were used for the acute food intake experiments, wherein the principles of laboratory animal care were followed.
The rats arrived at least 10-14 days before the start of the experiment to allow acclimatisation to experimental settings. During this period, the animals were handled at least 2 times. Immediately upon arrival, rats were put on a reversed light cycle (dark from 11am - 11pm) and put in the HM2 system and ID chipped. Three rats were housed in each cage. […] The rats were dosed once according to body weight with a 0.01-3 mg/kg solution administered subcutaneously (sc). The time of dosing was recorded for each group.
After dosing, the rats were returned to their home cages, where they had access to food and water. […] At the end of the experimental session, the animals were euthanised.

[4] = Pharmacokinetic studies in Beagle dogs after oral administration of SNAC-based tablets; format: in vivo; details: for Tmax / half-life: male, Beagle
Method: To be able to evaluate oral exposure following tablet dosing, tablet compositions comprising the test substance and SNAC (sodium N-(8-(2-hydroxybenzoyl)amino)caprylate) were prepared by mixing test substance with roller compacted SNAC and magnesium stearate as, e.g., described in WO 2019/149880. The amount of SNAC in the tablet composition was 100-300 mg, the amount of magnesium stearate in the tablet composition was 7.7 mg, and the target amount of each test substance in the tablet composition was 3-4 mg.
Pharmacokinetic (PK) studies in Beagle dogs were conducted to determine the exposure of the GLP-1 receptor-amylin receptor co-agonist after peroral administration.
For the pharmacokinetic studies male Beagle dogs were used, 2-7, or 1 to 5, years of age and weighing approximately 10-15, such as 10-12, kg at the start of the studies. The dogs were group housed in pens (12 hours light: 12 hours dark),and fed individually and restrictedly once daily with Royal Canin Medium Adult dog (Royal Canin Products, China Branch, or Brogaarden A/S, Denmark). Exercise and group social were permitted daily, whenever possible. The dogs were used for repeated pharmacokinetic studies with a suitable wash-out period between successive dosing. An appropriate acclimatisation period was given prior to initiation of the first pharmacokinetic study. All handling, dosing and blood sampling of the animals were performed by trained and skilled staff. Before the studies the dogs were fasted overnight and from 0 to 4 h after dosing. Besides, the dogs were restricted to water 1 hour before dosing until 4 hours after dosing, but otherwise have ad libitum access to water during the whole period.
The tablets used for the p.o. studies described herein were immediate release SNAC-based tablets dosed orally.
The tablets were administered in the following manner: 10 min prior to tablet administration the dogs may be dosed subcutaneously with approximately 3 nmol/kg of SEQ ID NO: 237, tablets were placed in the back of the mouth of the dog to prevent chewing. The mouth was then closed, and 10 mL of tap water was given by a syringe or gavage to facilitate swallowing of the tablet.
Blood was sampled at predefined time points for up till 240 hours, such as up till 10 hr, post dosing to adequately cover the full plasma concentration-time absorption profile of the GLP-1 agonist.
For each blood sampling time point approximately 0.8 mL of whole blood was collected in a 1.5 mL EDTA coated tube, and the tube was gently turned to allowing mixing of the sample with the EDTA. Blood samples (for example 0.8 mL) were collected in EDTA buffer (8 mM) and then centrifuged at 4° C. and 2000 G for 10 minutes. Plasma was pipetted into Micronic tubes on dry ice, and kept at -20° C. until analysis.
Blood samples were taken as appropriate, for example from a venflon in the cephalic vein in the front leg for the first 2 hours and then with syringe from the jugular vein for the rest of the time points (the first few drops were allowed to drain from the venflon to avoid heparin saline from the venflon in the sample).
Plasma concentration of the GLP-1 receptor-amylin receptor co-agonists were determined using LCMS. Individual plasma concentration-time profiles were analysed by a non-compartmental model in WinNonlin v. 5.0 or Phoenix v. 6.2 or 6.3 (Pharsight Inc., Mountain View, CA, USA), or other relevant software for PK analysis.
The individual plasma concentration-time profiles were analysed by non-compartmental analysis (NCA).

[5] = Table 4a, BHK cells expressing human GLP-1R, CRE-Luc, 3 hours, read-out: Human GLP-1R potency [EC50 (pM)]
[6] = Table 4a, BHK hAmyR3/CRE-Luc cells, 3 hours, read-out: Human AmyR3 potency [EC50 (pM)]
[7] = dogs, oral administration (tablet)

| Substance | EC50 [1, 5] [pM] | EC50 [2, 6] [pM] | Food intake relative to vehicle (%) 0-24 hr, 10 nmol/kg ([3]; Table 6a) [%] | Food intake relative to vehicle (%) 24-48 hr, 10 nmol/kg ([3]; Table 6a) [%] | AUC/D ([4]; dog, in vivo, po) [kg·h/L] | Cmax/D ([4]; dog, in vivo, po) [kg/L] | Tmax ([4]; dog, in vivo, po, Tmax (hr)) [h] | half-life ([4]; dog, in vivo, po, T½ (hr)) [h] | also measured |
| --- | --- | --- | --- | --- | --- | --- | --- | --- | --- |
| H-H[Aib]EGTFTSDVSSYLEEK([AEEA-AEEA-γGlu-C16 diacid])AAREFIAWLVRGRGGGGGEASELSTAALGRLSAELHELATLPRTETGK([AEEA-AEEA-γGlu-C16 diacid])GSP-NH2 [Compound 0411] | 3.5 | 45.9 | 81 | 88 | – | – | – | – | – |
| H-H[Aib]EGTFTSDVSSYLEGQAAREFIAWLVRGRK([AEEA-AEEA-γGlu-C18 diacid])GGGGEASELSTAALGRLSAELHELATLPRTETGSGSP-NH2 [Compound 0151] | 10.4 | 9.5 | 29 | 70 | – | – | – | – | – |
| HWEGTFTSDVSSYLEEQAARK([AEEA-AEEA-γGlu-Decanoyl(10-(4-HOOC-PhO))])FIEWLVRGK([AEEA-AEEA-γGlu-Decanoyl(10-(4-HOOC-PhO))])GEGGGGGEASELSTAALGRLSAELHELATLPRTETGSGSP-NH2 [Compound 0100] | – | – | 85 | 86 | – | – | – | – | EC50 [1]: 6.8 pM; EC50 [2]: 30.4 pM |
| H-H[Aib]EGTFTSDVSSYLEGQAAKEFIAWLVRGRK([AEEA-AEEA-γGlu-C18 diacid])GGEASELSTAALGRLSAELHELATLPRTETGSGSP-NH2 [Compound 0042] | 16.2 | 10.8 | 52 | 101 | – | – | – | – | – |
| H-H[Aib]EGTFTSDVSSYLEEQAAREFIAWLVRGRK([AEEA-AEEA-γGlu-Trx-C20 diacid])GGGGEASELSTAALGRPSAELHELATLPRTETGSGSP-NH2 [Comparator compound 0192, reference compound] | – | – | – | – | – | – | – | – | EC50 ([2]; Table 4c, further comparator compounds, read-out: Human AmyR3 potency [EC50 (pM)]): ≥ 10000 pM; Ability to agonise the amylin receptor, in words ([2]; Tables 4a-4c): impaired their ability to agonise (activate) the amylin receptor; also recorded: impaired amylin activity; Food intake relative to vehicle (%) 0-24 hr, 10 nmol/kg ([3]; Table 6b): 71%; Food intake relative to vehicle (%) 24-48 hr, 10 nmol/kg ([3]; Table 6b): 67%; Inhibition of food intake, in words ([3]; rats, 10 nmol/kg): significantly less than in the case of compound 0120 |
| H-H[Aib]EGTFTSDVSK([AEEA-AEEA-γGlu-C20 diacid])YLEEQAAREFIAWLVRGRGGGGGEASELSTAALGRLSAELHELATLPRTETGSGSP-NH2 [Compound 0565] | 6.4 | 6.2 | 39 | 42 | – | – | – | – | – |
| H-H[Aib]EGTFTSDVSSYLEGQAAK([AEEA-AEEA-γGlu-Trx-C20 diacid])EFIAWLVRGRGGGGGGGGGEASELSTAALGRLSAELHELATLPRTETGSGSP-NH2 [Compound 0095] | 7.4 | 6.6 | 55 | 95 | – | – | – | – | – |
| H[Aib]EGTFTSDVSSYLEEQAARK([AEEA-AEEA-γGlu-C18 diacid])FIAWLVRGRK([AEEA-AEEA-γGlu-C18 diacid])GGEASELSTAALGRLSAELHELATLPRTETGSGSP-NH2 [Compound 0116] | 1.5 | 21.7 | 83 | 82 | – | – | – | – | – |
| H-H[Aib]EGTFTSDVSSYLEEQAAREFIAWLVRGRK(Butyryl(4-SO2NHCO(CH2)16Tz))EASELSTAALGRLSAELHELATLPRTETGSGSP-NH2 [Compound 0103] | 28.1 | 11.6 | 80 | 80 | – | – | – | – | – |
| H[Aib]EGTFTSDVSSYLEEQAARK([γGlu-C18 diacid])FIAWLVRGRK([γGlu-C18 diacid])EASELSTAALGRLSAELHELATLPRTETGSGSP-NH2 [Compound 0131] | 16.1 | 14.5 | 70 | 80 | – | – | – | – | – |
| H-H[Aib]EGTFTSDVSSYLEEQAAREFIAWLVRGRK([AEEA-AEEA-γGlu-Trx-C20 diacid])GGEASELSTAALGRLSAELHELATLPRTETGSGSP-NH2 [Compound 0512] | 7.6 | 10.8 | – | – | 3.21 | 0.13 | 2 | 21 | – |
| H-H[Aib]EGTFTSDK([AEEA-AEEA-γGlu-C16 diacid])SSYLEEQAAREFIAWLVRGRGGGGGASELSTAALGRLSK([AEEA-AEEA-γGlu-C16 diacid])ELHELATLPRTETGSGSP-NH2 [Compound 0292] | 12 | 33.8 | – | – | 65.29 | 0.72 | 2 | 110 | – |
| H-H[Aib]EGTFTSDVSK([AEEA-AEEA-γGlu-C16 diacid])YLEEQAARK([AEEA-AEEA-γGlu-C16 diacid])FIAWLVRGRQEASELSTAALGRLSAELHELATLPRTETGSGSP-NH2 [Compound 0578] | 2.5 | 26.9 | – | – | 30.60 | 0.39 | 1.3 | 90 | – |
| H-HWEGTFTSDVSSYLEEQAAREFIEWLVRGK([AEEA-AEEA-γGlu-Decanoyl(10-(4-HOOC-PhO))])GEGGGGGASELSTAALGRLSK([AEEA-AEEA-γGlu-Decanoyl(10-(4-HOOC-PhO))])ELHELATLPRTETGSGSP-NH2 [Compound 0233] | – | – | – | – | – | – | – | – | EC50 [1]: 46.4 pM; EC50 [2]: 182 pM; AUC/D [4, 7]: 8.43 kg·h/L; Cmax/D [4, 7]: 0.3 kg/L; Tmax ([4]; dog, in vivo, dogs, oral administration (tablet), read-out: Tmax): 1.5 h; half-life ([4]; dog, in vivo, dogs, oral administration (tablet), read-out: T½ (converted)): 43 h |
| H-H[Aib]EGTFTSDVSSYLEEQAAK([εLys-AEEA-AEEA-γGlu-Trx-C20 diacid])EFIEWLVRGRGEASELSTAALGRLSAELHELATLPRTETGSGSP-NH2 [Compound 0436] | 15.2 | 12.3 | – | – | 15.00 | 0.3 | 1.5 | 35 | – |
| H-H[Aib]EGTFTSDK([AEEA-AEEA-γGlu-C16 diacid])SSYLEEQAAREFIAWLVRGRGGGGGEASELSTAALGRLSAELHK([AEEA-AEEA-γGlu-C16 diacid])LATLPRTETGSGSP-NH2 [Compound 0259] | 15.8 | 12 | – | – | 31.73 | 0.48 | 1.5 | 97 | – |
